The source of these data is PubChem BioAssay AID624274 (Broad Institute, 2012).

“And” between values parts separate entries of the source, which are not always exact repeats. Identical values can stand only once.

The experiment deals with Protein disulfide-isomerase (Homo sapiens) (UniProt P07237). The experiment is described as follows: PDI inhibitors, insulin turbidity readout, dose response, biochemical, absorbance, cherry-picked samples, set 2 (AID 624274). Conditions: PDI insulin reduction turbidity, absorbance 650 nm.
Chain of Protein disulfide-isomerase (Homo sapiens) (P07237 whole entry, looked up): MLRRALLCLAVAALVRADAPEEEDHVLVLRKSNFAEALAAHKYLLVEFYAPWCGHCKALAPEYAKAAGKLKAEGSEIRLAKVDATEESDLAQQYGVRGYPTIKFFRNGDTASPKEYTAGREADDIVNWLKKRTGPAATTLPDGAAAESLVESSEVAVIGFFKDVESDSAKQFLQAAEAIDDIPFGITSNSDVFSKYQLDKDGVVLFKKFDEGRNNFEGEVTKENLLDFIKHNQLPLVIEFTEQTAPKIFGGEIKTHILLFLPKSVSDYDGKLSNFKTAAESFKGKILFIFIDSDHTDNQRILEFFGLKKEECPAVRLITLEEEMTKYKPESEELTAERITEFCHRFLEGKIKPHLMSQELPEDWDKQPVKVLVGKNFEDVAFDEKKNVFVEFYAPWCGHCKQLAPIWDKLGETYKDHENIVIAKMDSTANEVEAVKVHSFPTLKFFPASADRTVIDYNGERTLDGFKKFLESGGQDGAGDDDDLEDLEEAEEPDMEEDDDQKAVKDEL
For the compound `C[C@@H]1O[C@@H](O[C@H]2[C@H](O)[C@@H](O)[C@H](Oc3c(-c4ccc(O)cc4)oc4cc(O)cc(O)c4c3=O)O[C@@H]2CO)[C@H](O)[C@H](O)[C@H]1O`, the AC50 – broadly, the concentration at which the activity in the assay is half-maximal – is 6.92 µM.

As for `C[C@H](CO)N1C[C@H](C)[C@@H](CN(C)S(=O)(=O)c2ccc(F)cc2)Oc2ccc(NC(=O)Cc3cn(C)c4ccccc34)cc2C1=O`, the AC50 is 19.5 µM.

Regarding `C[C@H](CO)N1C[C@H](C)[C@H](CN(C)Cc2ccccc2)Oc2ccc(NC(=O)Nc3ccccc3)cc2CC1=O`, the half-maximal activity concentration (AC50) was 19.5 µM. The figure for `Cc1noc(C)c1S(=O)(=O)Nc1ccc2c(c1)CC(=O)N([C@@H](C)CO)C[C@H](C)[C@H](CN(C)S(=O)(=O)c1ccc(F)cc1)O2` is 19.5 µM. The figure for `Cc1c(-n2cc(C(=O)c3ccccc3O)cc(C#N)c2=O)c(=O)n(-c2ccccc2)n1C` is 5.89 µM. Consider `C[C@H]1CN([C@@H](C)CO)C(=O)c2cc(NC(=O)Cc3cn(C)c4ccccc34)ccc2O[C@H]1CN(C)S(=O)(=O)c1ccc(F)cc1`, for which the half-maximal activity concentration (AC50) is 19.5 µM.

For the compound `O=C(c1ccco1)N1CCN(Cc2cc(=O)oc3cc(O)ccc23)CC1`, the AC50 was 19.5 µM. The figure for `CCOC(=O)c1c(CNCCN(CC)CC)n(C)c2cc(Br)c(OC)cc12` is 0.376 µM; for `Cc1noc(C)c1S(=O)(=O)Nc1ccc2c(c1)CC(=O)N([C@@H](C)CO)C[C@@H](C)[C@H](CN(C)S(=O)(=O)c1ccc(F)cc1)O2` it is 19.5 µM; for `COc1ccc(N2CCN(CC(=O)c3ccc(O)c(C)c3O)CC2)cc1` it is 19.5 µM. The figure for `Cc1ccc(S(=O)(=O)CCC(=O)c2ccc(O)cc2O)cc1` is 15.6 µM; for `CCOC(=O)c1c(CN2CCN(CCO)CC2)n(-c2ccccc2)c2cc(Br)c(O)cc12` it is 0.61 µM; for `COc1ccc(C2c3ccc(O)cc3Oc3ncn(CCN4CCOCC4)c(=N)c32)cc1OC` (stereo unspecified) it is 15.5 µM. The figure for `C[C@H](CO)N1C[C@H](C)[C@H](CN(C)S(=O)(=O)c2ccc(F)cc2)Oc2ccc(NC(=O)Cc3cn(C)c4ccccc34)cc2C1=O` is 19.5 µM. For `Cc1c(O)ccc2c(CN3CCN(CCO)CC3)cc(=O)oc12`, the AC50 is 8.66 µM. The figure for `Cc1c(O)ccc2c(CC(=O)N[C@@H](Cc3c[nH]c4ccccc34)C(=O)O)cc(=O)oc12` is 6.76 µM. On to `CCOC(=O)C1(CCOc2ccccc2)CCN(Cc2cc(OC)c(O)cc2Cl)CC1`, for which the AC50 was 6.03 µM. In the case of `C[C@H]1CN([C@@H](C)CO)C(=O)c2cc(NC(=O)Cc3cn(C)c4ccccc34)ccc2O[C@@H]1CN(C)S(=O)(=O)c1ccc(F)cc1` it was 19.5 µM; in that of `CCOC(=O)C1(CCOc2ccccc2)CCN(Cc2ccc(O)c(Cl)c2)CC1`, 0.599 µM; in that of `Cc1noc(C)c1S(=O)(=O)Nc1ccc2c(c1)CC(=O)N([C@H](C)CO)C[C@H](C)[C@@H](CN(C)S(=O)(=O)c1ccc(F)cc1)O2`, 19.5 µM. In the case of `Cc1noc(C)c1S(=O)(=O)Nc1ccc2c(c1)CC(=O)N([C@H](C)CO)C[C@H](C)[C@H](CN(C)S(=O)(=O)c1ccccc1)O2` it was 19.5 µM; in that of `CCc1cc(OCCCCNCc2ccccc2)ccc1Cl`, 10.6 µM.

As for `CN(C)C(=O)CSc1nnc([C@H](Cc2c[nH]c3ccccc23)NC(=O)OC(C)(C)C)o1`, the AC50 was 19.5 µM. Consider `C/C=C(\C)C(=O)NCCN1C2=NC[C@H](Cc3ccc(O)cc3)N2C[C@H]1Cc1ccc(O)cc1`, for which the AC50 is 15.4 µM. In the case of `C[C@@H]1CN([C@@H](C)CO)C(=O)c2cc(NC(=O)Cc3cn(C)c4ccccc34)ccc2O[C@H]1CN(C)S(=O)(=O)c1ccc(F)cc1` it was 2.08 µM; in that of `Cc1cccn2c(CN(C)C3CCCc4ccccc43)c(C(=O)N3CCOCC3)nc12` (stereo unspecified), 19.5 µM. In the case of `COc1ccc2c(CC(=O)OCC(=O)N(C)c3c(N)n(Cc4ccccc4)c(=O)[nH]c3=O)coc2c1` it was 5.45 µM. The figure for `CCN1C[C@]2(COC(=O)c3ccccc3N)CC[C@H](OC)C34[C@@H]5C[C@H]6[C@H](OC)[C@@H]5[C@](O)(C[C@@H]6OC)[C@@](O)([C@H]13)[C@@H](OC)[C@@H]42` is 19.5 µM; for `C[C@@H]1O[C@@H](OC[C@@H]2O[C@H](Oc3c(-c4ccc(O)cc4)oc4cc(O)cc(O)c4c3=O)[C@@H](O)[C@H](O)[C@H]2O)[C@H](O)[C@H](O)[C@H]1O` it is 3.51 µM. Turning to `Cc1c(O)ccc2c(CN3CCN(C/C=C/c4ccccc4)CC3)cc(=O)oc12`, the AC50 is 19.5 µM. In the case of `O=S(=O)(c1ccccc1)N1N=C(c2ccc(O)cc2)CC1c1ccco1` (stereo unspecified) it was 19.5 µM. In the case of `CC[C@]12c3[nH]c4cc(-c5ccco5)ccc4c3CCN1C(=O)[C@@H](CC(=O)NCc1ccc(OC)c(OC)c1)C[C@@H]2C(=O)N1CCN(C(=O)c2ccco2)CC1` it was 4.25 µM; in that of `C[C@H]1CN([C@@H](C)CO)C(=O)Cc2cc(NC(=O)Nc3ccccc3)ccc2O[C@H]1CN(C)Cc1ccccc1`, 10.3 µM. Regarding `COc1ccc(C(=O)Nc2ccccc2C(=O)NCc2ccco2)cc1`, the AC50 was 0.819 µM.

With `Cc1noc(C)c1S(=O)(=O)Nc1ccc2c(c1)CC(=O)N([C@H](C)CO)C[C@H](C)[C@H](CN(C)S(=O)(=O)c1ccc(F)cc1)O2`, the AC50 is 19.5 µM and 16.9 µM. The figure for `COc1cccc2c1C(=O)c1c(O)c3c(c(O)c1C2=O)CC(O)(C(C)=NO)CC3OC1CC(N)C(O)C(C)O1` (stereo unspecified) is 16.9 µM; for `COc1ccc(/C=C2\CN(Cc3ccccc3)C/C(=C\c3ccc(OC)c(O)c3)C2=O)cc1O` it is 2.98 µM; for `COc1cc(-c2oc3cc(O)cc(O)c3c(=O)c2O[C@@H]2O[C@H](COC3O[C@@H](C)[C@H](O)[C@@H](O)[C@H]3O)[C@@H](O)[C@H](O)[C@H]2O)ccc1O` (stereo partly specified) it is 7.96 µM. For `CC(=O)OC[C@H]1O[C@@H](Oc2cc(O)cc3oc(-c4ccc(O)cc4)cc(=O)c23)[C@H](O[C@@H]2O[C@@H](C)[C@H](O)[C@@H](O)[C@H]2O)[C@@H](O)[C@@H]1O`, the AC50 was 19.5 µM. `Cc1cc(O)cc2c1C1CCC3(C)C(=O)CCC3C1C=C2` (stereo unspecified): the AC50 was 19.5 µM. With `C[C@]12CC[C@@H]3c4ccc(O[C@@H]5O[C@H](C(=O)O)[C@@H](O)[C@H](O)[C@H]5O)cc4CC[C@H]3[C@@H]1C[C@@H](O)[C@@H]2O`, the AC50 was 15.7 µM.

Take `CC[C@]12c3[nH]c4cc(-c5ccco5)ccc4c3CCN1C(=O)[C@@H](CC(=O)NCCCOC)C[C@@H]2C(=O)N1CCN(C(=O)c2ccco2)CC1`: the concentration at half-maximal activity (AC50) was 16.7 µM. The figure for `C[C@H](CO)N1C[C@H](C)[C@@H](CN(C)S(=O)(=O)c2ccccc2)Oc2ccc(NC(=O)Cc3cn(C)c4ccccc34)cc2C1=O` is 0.125 µM; for `COC1/C=C/C=C(\C)Cc2cc(O)c(Cl)c(c2)N(C)C(=O)CC(OC(=O)C(C)C)C2(C)OC2C(C)C2CC1(O)NC(=O)O2` (stereo unspecified) it is 9.59 µM; for `CCN(CC)CCNC(=O)C(C(=O)c1ccccc1)n1ccccc1=O` (stereo unspecified) it is 2.16 µM. In the case of `O=C(O)C1C(c2ccccc2)C(C(=O)Oc2ccc(O)cc2)C1c1ccccc1` (stereo unspecified) it was 14.7 µM; in that of `CC(C)(C)OC(=O)N[C@@H](Cc1c[nH]c2ccccc12)c1nnc(SCC(N)=O)o1`, 19.5 µM. The figure for `C[C@H](CO)N1C[C@H](C)[C@@H](CN(C)Cc2ccc(Oc3ccccc3)cc2)Oc2c(NS(C)(=O)=O)cccc2C1=O` is 19.5 µM; for `O=C(NC(Cc1ccc(O)cc1)C(=O)N=Nc1c(O)[nH]c2ccccc12)c1ccccc1` (stereo unspecified) it is 19.5 µM; for `Cc1ccc2nc(N3CCN(Cc4nnnn4C4CCCC4)CC3)c(C#N)cc2c1` it is 4.05 µM. As to `O=C1NC[C@H](Cc2ccccc2)N(C[C@H]2CCCN2C[C@H](Cc2ccccc2)N2C[C@H](Cc3ccc(O)cc3)N(CCc3ccccc3)C(=O)C2=O)C1=O`, the AC50 is 6.5 µM.

As to `O=c1c(O[C@H]2O[C@@H](CO)[C@H](O)[C@@H](O)[C@@H]2O)c(-c2ccc(O)cc2)oc2cc(O)cc(O)c12`, the AC50 is 0.0155 µM. The figure for `C[C@@H]1CN([C@@H](C)CO)C(=O)c2cccc(NS(C)(=O)=O)c2O[C@H]1CN(C)Cc1ccc(Oc2ccccc2)cc1` is 19.5 µM and 7.04 µM.

Turning to `CN(C)S(=O)(=O)c1ccc(Cl)c(NC(=O)CSc2nnnn2-c2ccc(O)cc2)c1`, the AC50 was 19.5 µM.

`CCN1CC2(COC(=O)c3ccccc3N)CCC(OC)C34C5CC6C(OC)CC(O)(C5C6OC)C(O)(C(OC)C23)C14` (stereo unspecified): the AC50 is 19.5 µM. As to `O=C(/C=C/c1ccc(NC(=O)c2ccccc2-c2ccccc2C(=O)O)cc1)c1ccccc1`, the AC50 was 11.4 µM. The figure for `NNC(=O)c1cc(-c2ccc(O)cc2)nc2ccc(Br)cc12` is 19.5 µM; for `O=c1c(OC2OC(CO)C(O)C(O)C2O)c(-c2ccc(O)c(O)c2)oc2cc(O)cc(O)c12` (stereo unspecified) it is 8.92 µM; for `O=C(CCC1CCCCC1)NCCN1C2=NC[C@H](Cc3ccc(O)cc3)N2C[C@H]1Cc1ccc(O)cc1` it is 19.5 µM. In the case of `C[C@@H]1O[C@@H](Oc2c(-c3cc(O)c(O)c(O)c3)oc3cc(O)cc(O)c3c2=O)[C@H](O)[C@H](O)[C@H]1O` it was 9.8 µM. In the case of `CCN1C(=O)C2C(c3ccccc3F)NC(Cc3ccc(O)cc3)(C(=O)OC)C2C1=O` (stereo unspecified) it was 10.2 µM; in that of `Cc1n[nH]c(=O)c2c(NC(=O)CSc3nnnn3-c3ccc(O)cc3)oc(C)c12`, 19.5 µM. Turning to `CCSc1nnc([C@H](Cc2c[nH]c3ccccc23)NC(=O)OC(C)(C)C)o1`, the AC50 was 19.5 µM. Turning to `C[C@@H]1CN([C@H](C)CO)C(=O)c2cccc(NS(C)(=O)=O)c2O[C@H]1CN(C)Cc1ccc(Oc2ccccc2)cc1`, the AC50 was 18.8 µM.

Turning to `C[C@@H]1O[C@@H](OC[C@H]2O[C@@H](Oc3c(-c4ccc(O)c(O)c4)oc4cc(O)cc(O)c4c3=O)[C@H](O)[C@@H](O)[C@@H]2O)[C@H](O)[C@H](O)[C@H]1O`, the half-maximal activity concentration (AC50) was 7.62 µM. As to `COC(=O)CC1OCC=C2CN3CCC45C6=CC(=O)C(=O)C([N+](=O)[O-])=C6NC4C1C2CC35` (stereo unspecified), the concentration at half-maximal activity (AC50) is 8.03 µM. In the case of `Cn1cnnc1Sc1ccc(/C=C/C(=O)c2ccc(O)cc2)cc1[N+](=O)[O-]` it was 0.422 µM; in that of `C[C@@H]1O[C@@H](Oc2c(-c3ccc(O)c(O)c3)oc3cc(O)cc(O)c3c2=O)[C@H](O)[C@H](O)[C@H]1O`, 2.48 µM and 5.59 µM; in that of `O=C(c1c(O)cc(O)cc1O)C1c2c(cc(O)c3c2O[C@H](c2ccc(O)cc2)[C@@H](O)C3)OC1c1ccc(O)cc1` (stereo partly specified), 19.5 µM. The figure for `O=C1NC[C@H](Cc2ccc(O)cc2)N(CC2CCCCC2)C1=O` is 19.5 µM; for `COc1ccccc1N1CCN(C(=O)C(=O)N/N=C/c2cccc(O)c2)CC1` it is 19.5 µM.
